Blank lines part the entries; values can stand above or below the molecule they belong to.
Legend:
PGC1α [1] = test: B-DNA gene expression assay, ZSF1 rat model; assay type: in vivo; conditions: ZSF1 obese rats
Protocol: There are 4 groups of animals in the study design: • 1. ZSF1 Lean—Vehicle (n=6) • 2. ZSF1 Obese—Vehicle (n=9) • 3. ZSF1 Obese—Compound A 10 mg/kg/day (n=9) • 4. […]
Animals in Group 4 was placed on drinking water containing enalapril and kept on Purina 5008 rodent chow (C13000). Animals in Groups 1-3 were kept on Purina 5008 rodent chow and drinking water. Ten days after the initiation of enalapril treatment, […] received Compound A at 10 mg/kg/day, respectively for 11 weeks (monotherapy). Beginning on day 10, animals in Groups 3 and 4 received Compound A at 10 mg/kg/day in addition to enalapril for an additional 11 weeks (combination therapy). […]
(§1) For gene expression analysis, 5-10 mg of tissue samples from ZSF1 rat liver, CCl4 rat liver, or DIO mice brain hypothalamus, or approximately 50 mg of white adipose tissue (WAT) from ZSF1 rat were homogenized and processed using QuantiGene sample processing kit according to manufacturer's instruction (Affymatrix, Fremont, CA). Gene expression in the tissue samples was measured using a QuantiGene 2.0 Plex Assay kit (Affymetrix) and multiplex gene panel specifically designed for each animal model following manufacture instructions. Analytes were measured using Luminex MAGPIX™ (Bio-Rad, Hercules, CA). […]

AMPK = test: B-DNA gene expression assay, DIO mouse model, WAT; assay type: in vivo; conditions: DIO mice; 6 mg/kg in diet, 28 days; FIG. 2A (AMPKα1, eWAT)
Protocol: (§2) Animals were fed either chow or high fat diet (Research Diets). The lean mice were maintained on a standard chow diet. The obese mice were given 60% high fat diet (HFD) starting at 6 weeks of age. All animals were allowed free access to drinking water and chow. The study began when the mice were 12 weeks of age and concluded after 4 weeks (16 weeks of age). The obese control group was maintained on HFD. Groups receiving compound treatments were fed with HFD containing 90 mg Compound A/kg diet (an approximate dose of 6 mg/kg) or 45 mg vericiguat/kg diet (an approximate dose of 3 mg/kg). Body weights were determined twice weekly and food intake was measured daily for 28 days. […]
as §1

Pparα = test: B-DNA gene expression assay, DIO mouse model, WAT; assay type: in vivo; conditions: DIO mice; 6 mg/kg in diet, 28 days; FIG. 2B (eWAT)
Protocol: as §2, §1

Pparγ = test: B-DNA gene expression assay, carbon tetrachloride (CCl4) rat model, liver; assay type: in vivo, Sprague-Dawley rat; conditions: CCl4 rats; 3 mg/kg; FIG. 2C
Protocol: Male, Sprague-Dawley rat were dosed with 0.25 ml/kg of CCl4 PO three times a week diluted in corn oil for the duration of the study (8 weeks). Control animals received an equivalent volume of corn oil. Two weeks after beginning the administration of CCl4, animals were given a chow admixture containing Compound A calculated to achieve doses of 3 mg/kg/day.
For gene expression analysis, 5-10 mg of tissue samples from ZSF1 rat liver, CCl4 rat liver, or DIO mice brain hypothalamus, or approximately 50 mg of white adipose tissue (WAT) from ZSF1 rat were homogenized and processed using QuantiGene sample processing kit according to manufacturer's instruction (Affymatrix, Fremont, CA). Gene expression in the tissue samples was measured using a QuantiGene 2.0 Plex Assay kit (Affymetrix) and multiplex gene panel specifically designed for each animal model following manufacture instructions. Analytes were measured using Luminex MAGPIX™ (Bio-Rad, Hercules, CA). Median fluorescence intensity (MFI) was generated for each gene target and normalized to the geometric mean expression of selected housekeeping genes, which were chosen to match the target transcript abundance.

ADMA = conditions: diabetic patients; fourteen-day study (Hanrahan et al 2018); cited from earlier work
PGC1α [2] = test: B-DNA gene expression assay, diet-induced obesity (DIO) mouse model, hypothalamus; assay type: in vivo; conditions: DIO mice, compound in high fat diet; FIG. 1C
Protocol: as §2, §1

[3] = tested on: LHON patient cells GM10742; test: ATP assay (ATPlite); assay type: cell-based, human; conditions: compound alone or in combination with DETA, 24 hrs
Protocol: (§3) Lymphoblast cells of LHON patient (GM11605 and GM10742) and Leigh patient (GM13740) were purchased from Coriell institute and cultured according to recommended growth condition from the vendor. The culture medium RPMI-1640 (ATCC, catalog #30-2006) containing 15% fetal bovine serum (Corning catalog #35-015-CV).
(§4) Corielll cells were plated on 96-well V-bottom culture plate (Corning Catalog #3894) at density of 200,000 cells per well in 90 ul RPMI-1640 media containing 2% FBS. Three hours later, 10 μL per well of 10× compounds (at its final conc.) diluted in RPMI-1640 media containing 2% FBS were added to the cells and incubated at 37 C for 24 hrs. The next day, ATP levels in the cells were measure using ATPlite kit (PerkinElmer Cat #6016943)

[4] = tested on: LHON patient cells GM11605; test: ATP assay (ATPlite); assay type: cell-based, human; conditions: compound alone or in combination with DETA, 24 hrs
Protocol: as §3, §4

[5] = tested on: Leigh patient cells GM13740; test: ATP assay (ATPlite); assay type: cell-based, human; conditions: compound alone or in combination with DETA, 24 hrs
Protocol: as §3, §4

DDAH2 = test: bDNA gene expression assay in patient cells; assay type: cell-based, human; conditions: in the presence of DETA
Protocol: as §3
(§5) Coriell cells were plated on 96-well V-bottom culture plate (Corning Catalog #3894) at density of 200,000 cells per well in 90 ul RPMI-1640 media containing 2% FBS. Three hours later, 10 μL per well of 10× compounds (at its final conc.) diluted in RPMI-1640 media containing 2% FBS were added to the cells and incubated at 37 C for 24 hrs. The next day, cells were spun down by centrifuging in a benchtop centrifuge (Beckman Model #TJ-25) at 300 g for 5 min, media was removed and cell pellets were lysed in 100 μL/well with lysis mixture provided by QuantiGene sample processing kit (Affymetrix catalog #QS010). Gene expression in the cell lysates was measured using a QuantiGene 2.0 Plex Assay kit (Affymetrix catalog #QP1013) and multiplex gene panel (Thermo/Fisher, plex set #QGP-150-M19022101) according to manufacturer's protocols. Analytes were measured using Luminex MAGPIX™ (Bio-Rad, Hercules, CA). Median fluorescence intensity (MFI) was generated for each gene target and normalized to the geometric mean expression of three housekeeping genes (Hprt1, Ppib and Polr2a), which were chosen to match the target transcript abundance.

TFAM = test: bDNA gene expression assay in patient cells; assay type: cell-based, human; conditions: in the presence of DETA
Protocol: as §3, §5

sGC = molecular target: T1, sGC (Homo sapiens, UniProt Q02153); test: cGMP measurement in mitochondrial disease patient lymphoblast cells; assay type: cell-based; conditions: in combination with DETA
T1 construct: confirming functional expression of sGC in these patient cells; host or cells: human LHON and Leigh patient lymphoblast cells
T1 sequence (Q02153 1-619): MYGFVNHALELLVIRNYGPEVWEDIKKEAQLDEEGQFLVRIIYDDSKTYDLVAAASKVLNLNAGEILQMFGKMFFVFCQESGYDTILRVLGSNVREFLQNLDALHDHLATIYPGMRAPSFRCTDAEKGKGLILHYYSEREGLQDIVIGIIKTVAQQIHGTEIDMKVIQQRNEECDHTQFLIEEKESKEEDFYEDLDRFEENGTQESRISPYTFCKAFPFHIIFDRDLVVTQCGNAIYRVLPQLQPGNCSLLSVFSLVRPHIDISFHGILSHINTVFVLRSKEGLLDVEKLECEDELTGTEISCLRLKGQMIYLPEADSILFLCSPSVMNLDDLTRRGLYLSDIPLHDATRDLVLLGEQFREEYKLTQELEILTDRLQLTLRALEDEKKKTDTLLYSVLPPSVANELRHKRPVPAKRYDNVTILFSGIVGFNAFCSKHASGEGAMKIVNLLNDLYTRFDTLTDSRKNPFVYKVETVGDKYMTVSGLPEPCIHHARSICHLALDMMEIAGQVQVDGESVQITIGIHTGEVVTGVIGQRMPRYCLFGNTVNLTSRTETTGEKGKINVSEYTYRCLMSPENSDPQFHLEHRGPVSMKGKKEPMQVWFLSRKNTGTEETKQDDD
T1 sequence (Q02108 1-690 partner): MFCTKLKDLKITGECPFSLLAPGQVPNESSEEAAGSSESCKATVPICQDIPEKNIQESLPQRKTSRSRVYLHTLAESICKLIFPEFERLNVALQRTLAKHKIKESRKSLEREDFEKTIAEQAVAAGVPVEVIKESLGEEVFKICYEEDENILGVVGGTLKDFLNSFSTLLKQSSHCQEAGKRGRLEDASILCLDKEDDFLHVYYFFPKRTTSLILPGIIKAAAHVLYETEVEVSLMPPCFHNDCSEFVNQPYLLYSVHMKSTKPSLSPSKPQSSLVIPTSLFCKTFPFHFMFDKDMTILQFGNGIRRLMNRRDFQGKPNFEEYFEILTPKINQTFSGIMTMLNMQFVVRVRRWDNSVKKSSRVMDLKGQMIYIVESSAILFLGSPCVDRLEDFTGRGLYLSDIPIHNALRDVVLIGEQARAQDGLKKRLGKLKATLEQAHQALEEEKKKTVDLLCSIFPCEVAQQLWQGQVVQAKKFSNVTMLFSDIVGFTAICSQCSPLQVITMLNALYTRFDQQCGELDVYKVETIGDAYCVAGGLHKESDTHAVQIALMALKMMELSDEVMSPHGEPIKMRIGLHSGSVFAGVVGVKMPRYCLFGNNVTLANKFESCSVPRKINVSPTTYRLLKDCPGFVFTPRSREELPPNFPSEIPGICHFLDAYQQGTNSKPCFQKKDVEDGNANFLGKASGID
Protocol: as §3
On the day of the assay, Coriell cells were plated on 96-well V-bottom culture plate (Corning Catalog #3894) at density of 200,000 cells per well in 100 ul culture media. Right before the assay, cells were spun down by centrifuging in a benchtop centrifuge (Beckman Model #TJ-25) at 300 g for 5 min, media was removed and cell pellets were carefully washed once with 200 μL of HBSS containing Ca^2+ and Mg^2+ (Gibco catalog #14025-075). The cells were spun down, then 90 μL per well of HBSS containing 0.5 mM IBMX was added to the cells and were incubated at 37° C. for 15 min. Then 10 μL per well of 10× compounds (at its final conc.) diluted in HBSS solution containing IBMX plus different concentration of NO donor, DETA (final concentration of 0, 10 μM, 30 μM) was added to the cells and incubated at 37° C. for another 20 min. Cell pellets were spun down and lysed with 0.1 N HCl (100 ul/well). cGMP was measured using a cGMP Biotrak EIA kit (GE cat no. RPN226). cGMP concentrations of the samples were calculated from the standard curve.

Structure (SMILES): OC(CNc1nc(-c2cc(-c3ccon3)n(Cc3ccccc3F)n2)ncc1F)(C(F)(F)F)C(F)(F)F [Compound A]
gene expression level of PGC1α in white adipose tissue (WAT) (PGC1α [1]; 10 mg/kg in combination with enalapril at 3 mg/kg, FIG. 1A): increased | gene expression level of AMPK in WAT (AMPK): increased | gene expression level of Pparα in WAT (Pparα): increased | gene expression level of Pparγ in liver (Pparγ): increased | levels of circulating ADMA (ADMA): reduced

Structure (SMILES): Fc1ccccc1Cc1nc(-c2nc(C(F)(F)F)n[nH]2)cn2ccnc12 [Compound B]
PGC1α expression in hypothalamus (PGC1α [2]): increased PGC1α expression significantly | ATP production / ATP level [3]: increase | ATP production / ATP level [4]: increase | ATP production / ATP level [5]: increase | DDAH2 gene expression level (DDAH2; LHON patient cells (GM11605), FIG. 5B): increased | DDAH2 gene expression level (DDAH2; Leigh patient cells (GM13740), FIG. 6B): increased | TFAM gene expression level (TFAM; LHON patient cells (GM11605), FIG. 5A): increased | TFAM gene expression level (TFAM; Leigh patient cells (GM13740), FIG. 6A): increased

Structure (SMILES): NC(=O)[C@](O)(CNc1nc(-c2cc(-c3ccon3)n(Cc3ccccc3F)n2)ncc1F)C(F)(F)F [Compound D]
gene expression level of PGC1α in liver (PGC1α [1]; 30 mg/kg in combination with enalapril at 3 mg/kg, FIG. 1B): increased | ATP production / ATP level [5]: increased ATP levels significantly

cGMP formation (sGC; LHON patient cells GM10742, FIG. 3B): significantly activated | cGMP formation (sGC; LHON patient cells GM11605, FIG. 3A): significantly activated | cGMP formation (sGC; Leigh patient cells GM13740, FIG. 3C): significantly activated
Structure (SMILES): Fc1ccccc1Cn1nc(-c2nc(C(F)(F)F)n[nH]2)c2cccnc21 [Compound E]
ATP production / ATP level [4]: significantly increase | ATP production / ATP level [5]: significantly increase
